Patent US20200276150A1, “PARENTERAL FORMULATIONS OF MACROLIDE ANTIBIOTICS” (Tetard, Inc., priority 2010, published 2020)
Values after ≈ are worked out from the molar mass of the structure shown. “Also recorded” adds a separate entry of the source.

Experiments:
[1] = Freeze drying, visual observation of the cakes (Example 9); type: physicochemical; conditions: for Visual observation of the cake: excipient at its maximum concentration in CEM-101 IV solution, frozen -25° C. 2 h, freeze dried 24 h
Description: 1 mL of CEM-101 IV solution was dispensed into in a clear glass vial, followed by the careful addition of small amounts of the excipient under investigation (either 50 or 100 mg). The solution in the vials were mixed using a vortex mixer and sonicated until a clear solution was observed. The final data is shown below, and reflects the maximum possible amount of each excipient used in the freeze dried formulations. Subsequently, all clear vials were frozen at −25° C. for 2 h. The caps were then removed and the vials were covered with a small tissue paper and placed in the freeze drier for 24 h (in the dark). The cakes were then inspected and the following visual observations detailed in the table below were made.
Based on the results above, three excipients with no interaction with the API were selected and solutions containing various ratio combinations of the API and excipient were prepared. These solutions were then frozen at −25° C., then lyophilised for 24 h, in the dark. The resultant cakes were then examined visually to determine the integrity of the plugs.

[2] = Solubility of each excipient in CEM-101 IV solution (Example 9); type: physicochemical; conditions: in 1 mL CEM-101 IV solution (50 mg/mL)
Description: EXAMPLE 9. Characterization of properties of excipients for freeze drying to prepare lyophilized pharmaceutical composition. […] The solution in the vials were mixed using a vortex mixer and sonicated until a clear solution was observed. […] The caps were then removed and the vials were covered with a small tissue paper and placed in the freeze drier for 24 h (in the dark).

[3] = Excipient compatibility by HS-MCDSC (Example 8); type: physicochemical; conditions: API-excipient binary pair with CEM-101, 1:1 ratio, 30-80° C.
Description: EXAMPLE 8. Determination of Compatibility of Excipients for Lyophilized Pharmaceutical Composition. Excipient compatibility is assessed using high sensitivity multi-cell differential scanning calorimetry (HS-MCDSC). The high sensitivity multi-cell differential scanning calorimeter is an analytical instrument designed to measure heat capacity and changes in heat capacity as a function of temperature.
Stability (of an individual component) is usually assessed by loading a sample of the material into a cell and measuring the heat-flow as a function of time. The instrument should rapidly detect any degradation processes occurring, and the absence of any heat responses gives confidence that the system under investigation is stable.
A similar approach can be adopted for testing binary mixtures of the active pharmaceutical ingredient (API) and excipients. […] Any unexpected power change recorded in the drug-excipient mixture indicates a possible interaction between the two components.
Calorimetric data were recorded using a high sensitivity MCDSC (CSC Model 4100 MCDSC, USA). Samples were run using API alone (ca. 50 mg), excipients alone (ca. 50 mg) and API-Excipient binary pairs (ca. 25 mg:25 mg, 1:1 ratio). Samples were weighed directly into the cells which were sealed with the metal caps provided and a rubber sealing disc to ensure an air-tight seal. Experiments were programmed as follows:
The MCDSC consists of four cells contained in a loading chamber. The cells 1, 2 and 3 were filled with samples, while the 4th cell is always left empty and run as a blank. Prior to analysis, cells 1 to 3 were run empty with no samples to record the blank results which were then subtracted from subsequent results obtained from samples analysed. Data were recorded every 10 s using the dedicated software package CpCalc. Data analysis was performed using CpCalc and Microsoft Excel.
The calorimeter records all the events occurring in each of the sample cell. The approach adopted here was to calculate the power-time data obtained for the active and excipients alone. The calculated data is then used to create an ‘expected’ theoretical trace as an average of the signals coming from both API and excipients at a mixture of 1:1 ratio.

[4] = Storage of lyophilized cakes at 5° C., 25° C./60% RH and 40° C./75% RH; type: physicochemical; conditions: 7, 13 and 28 days
Description: Cakes were stored at 5° C., 25° C./60% RH and 40° C./75% RH. Samples were evaluated at 7, 13 and 28 days.

[5] = IV administration to dogs, observation for pain response (Example 11); type: in vivo, Beagle dogs (Canis familiaris); conditions: IV infusion about 90 minutes, 5, 10, 15 mg/kg/d
Description: EXAMPLE 11. Pharmacokinetics (PK) in dogs following IV administration. […] The plasma level of CEM-101 and toxicokinetics at 0-24 hours is measured (jugular venipuncture, predose, then immediately following completion of infusion at 0, 0.5, 1, 4, 8, and 24 hours). Animal body weight is also periodically measured. […] Total dose volume is 15 mL/kg, and intravenous infusion is carried out over about 90 minutes (10 mL/kg/h) via disposable indwelling catheter into one of the cephalic and/or saphenous veins. Vein or vein location is changed at least every seven days. Control animals receive vehicle alone. An illustrative formulation is CEM-101 in the following vehicle comprising or consisting essentially of L(+)-tartaric acid, D-mannitol, SWFI, 1N HaOH, and optionally 1-thioglycerol, as described herein. Following dosing, a portion of the animals are immediately euthanized for necropsy evaluation. A “recovery” group is observed for an additional 28 days without dosing, then euthanized for necropsy evaluation. It is appreciated that both monkeys and dogs elicit particular sensitivity to pain, and therefore may be observed for pain response upon administration of the test articles.

[6] = QT effects of CEM-101 (statement, no method); conditions: compared to other macrolides and ketolides
[7] = CEM-101 in 60 mM tartaric acid with and without 0.9% NaCl, concentration by HPLC (Examples 3A, 3B); type: physicochemical
Description: EXAMPLE 3A. […] On addition of NaCl, the resultant solution went clear on mixing for an hour (53.0 mg/mL by HPLC). […] EXAMPLE 3B. Compositions of CEM-101 in an Unbuffered Solution for Parenteral Administration and Studies in 0.9% NaCl solution (˜8% w/v CEM-101). Approximately 90 mg CEM-101 was dissolved in 1 mL 60 mM tartaric acid pH 2.16 and allowed to mix overnight.

[8] = IV administration to monkeys, observation for pain response (Example 10); type: in vivo, Cynomolgus monkeys (Macaca fasicularis); conditions: IV infusion about 90 minutes, 5, 12.5, 25 mg/kg/d
Description: EXAMPLE 10. Pharmacokinetics (PK) in monkeys following IV administration. […] The plasma level of CEM-101 and toxicokinetics at 0-24 hours is measured (venipuncture, predose, then immediately following completion of infusion at 0, 0.5, 1, 4, 8, and 24 hours). Animal body weight is also periodically measured. […] Total dose volume is 15 mL/kg, and intravenous infusion is carried out over about 90 minutes (10 mL/kg/h) via disposable indwelling catheter into one of the brachial and/or saphenous veins. Vein or vein location is changed at least every seven days. Control animals receive vehicle alone. An illustrative formulation is CEM-101 in the following vehicle comprising or consisting essentially of L(+)-tartaric acid, D-mannitol, SWFI, 1N HaOH, and optionally 1-thioglycerol, as described herein. Following dosing, a portion of the animals are immediately euthanized for necropsy evaluation. A “recovery” group is observed for an additional 28 days without dosing, then euthanized for necropsy evaluation. It is appreciated that both monkeys and dogs elicit particular sensitivity to pain, and therefore may be observed for pain response upon administration of the test articles.

[9] = Cardiac tissue levels of CEM-101 (statement, no method); conditions: compared to other macrolides and ketolides
[10] = Saturated solubility of CEM-101 in a range of vehicles (Example 5); type: physicochemical; conditions: for solubility at 72 h: thermodynamic from solid, mixed 72 hours, HPLC
Description: EXAMPLE 5. Solubility of CEM-101 in a Range of Vehicles. […] Additional CEM-101 is added to vehicles which completely solubilized the CEM-101 API within 24 hours. Samples are allowed to mix for a total of 72 hours. Once mixed, the samples are assessed visually, centrifuged and then diluted to appropriate concentration for analysis by HPLC to determine saturated solubility. Without being bound by theory, it is believed herein that the vehicles are in situ salt forming compounds when mixed with CEM-101. Studies were conducted by weighing approximately 1000 mg of each vehicle into a number of vials. A known amount of CEM-101 was then added into each vial and the resulting mixture was mixed on a vortex prior to mixing overnight on a roller mixer.

[11] = test system: azithromycin-resistant strains; assay: Antibacterial activity compared with azithromycin (statement, no method); type: cell-based

Molecule	Visual observation of the cake [1]	Conc. (mg/mL), maximum possible amount of excipient giving a clear solution [2]	MC-DSC Results (No Interaction/Interaction) [3]	Visual observation of lyophilizate ([1]; API:Excipient Ratio 1:1)	Visual observation of lyophilizate ([1]; API:Excipient Ratio 1:2)	Visual observation of lyophilizate ([1]; API:Excipient Ratio 1:3)	Visual observation of lyophilizate ([1]; API:Excipient Ratio 1:4)	Cake colour on storage [4]	other results
OC[C@H]1O[C@H](O[C@H]2O[C@H](CO)[C@@H](O)[C@H](O)[C@H]2O)[C@H](O)[C@@H](O)[C@@H]1O [Trehalose]	Poor cake-puffing	700 mg/mL	Interaction	–	–	–	–	–	–
Isomalt	Good solid cake-	600 mg/mL	Interaction	–	–	–	–	–	–
NCC(=O)O [Glycine]	Good solid cake-	–	No	Good solid cake- with uniform	Good solid cake- with uniform	Good solid cake- with uniform	Good solid cake- with uniform	remained white	MC-DSC Results (No Interaction/Interaction) ([3]; listed as glycine): compatible
CC[C@H]1OC(=O)[C@@](C)(F)C(=O)[C@H](C)[C@@H](O[C@@H]2O[C@H](C)C[C@H](N(C)C)[C@H]2O)[C@@](C)(OC)C[C@@H](C)C(=O)[C@H](C)[C@H]2N(CCCCn3cc(-c4cccc(N)c4)nn3)C(=O)O[C@]12C [CEM-101]	–	–	–	–	–	–	–	–	Pain response upon IV administration [5]: no reaction by the animal was observed; QT effects / QT prolongation [6]: do not cause QT prologation; also recorded: low QT effects or no QT effects; Concentration of clear solution by HPLC ([7]; 51.38 mg CEM-101 in 1 mL 60 mM tartaric acid pH 2.16, mixed overnight (5% initial formulation)): 50400 µg/mL; Concentration by HPLC after addition of 0.9% w/v NaCl ([7]; 5% NaCl formulation, clear on mixing for an hour): 53000 µg/mL; Concentration by HPLC after addition of 0.9% w/v NaCl ([7]; 8% NaCl formulation, white lump formed, mixed approx. 2 hours): 3900 µg/mL; solubility ([7]; aqueous buffer, thermodynamic from solid, approx. 90 mg CEM-101 in 1 mL 60 mM tartaric acid pH 2.16, mixed overnight (8% initial formulation), read-out: Saturated solubility by HPLC): 83 mg/mL (≈ 98.2 mM); Pain response upon IV administration [8]: no reaction by the animal was observed; Cardiac tissue levels / accumulation [9]: do not accumulate in cardiac tissue; also recorded: do not exhibit high cardiac tissue levels; pH of resultant solution ([10]; CEM-101 in 1M Ascorbic Acid (sample 17)): 1.93; pH of resultant solution ([10]; CEM-101 in 1M Methane sulphonic Acid (sample 16)): 0.03; pH of resultant solution ([10]; CEM-101 in 1M Tartaric Acid (sample 19)): 1.27; solubility at 72 h ([10]; pH 0.03, simulated gastric fluid, vehicle 1M Methane sulphonic Acid (sample 16)): 100 mg/mL (≈ 118 mM); solubility at 72 h ([10]; pH 1.27, simulated gastric fluid, vehicle 1M Tartaric Acid (sample 19)): 100 mg/mL (≈ 118 mM); solubility at 72 h ([10]; pH 1.93, simulated gastric fluid, vehicle 1M Ascorbic Acid (sample 17)): 100 mg/mL (≈ 118 mM); solubility at 72 h ([10]; simulated gastric fluid, vehicle 1M Hydrochloric Acid (sample 15)): 100 mg/mL (≈ 118 mM); Activity against azithromycin-resistant strains [11]: active; Potency relative to azithromycin ([11]; more potent than azithromycin): 8-16 times
OC[C@@H](O)[C@@H](O)[C@H](O)[C@H](O)CO [Mannitol]	Good solid cake-	200 mg/mL	No	Good solid cake- with uniform	Good solid cake- with uniform	Good solid cake- with uniform	Good solid cake- with uniform	remained white	MC-DSC Results (No Interaction/Interaction) ([3]; listed as mannitol): compatible
OC[C@H]1O[C@@](CO)(O[C@H]2O[C@H](CO)[C@@H](O)[C@H](O)[C@H]2O)[C@@H](O)[C@@H]1O [Sucrose]	–	–	No	Good solid cake- with uniform	Good solid cake- with uniform	Good solid cake- with uniform	Good solid cake- with uniform	Some cake yellowing	MC-DSC Results (No Interaction/Interaction) ([3]; listed as sucrose): compatible
